Molecules are shown by their SMILES. Some results are limits rather than exact numbers.

In data set [1] the test system is CHO-K1 cells. It is filed as cell-based, hamster. On the procedure: (§1) First, each test substance is dissolved in DMSO to a concentration of 10^−3 M, and the solution was 10-fold diluted stepwise (serial dilution) to give diluted test sample solutions having a test substance concentration of 10^−3 M to 10^−9 M. Then, each diluted sample solution was 100-fold diluted using a solution prepared by adding 5×10^−9 M) of 5α-dehydrotestosterone to DEMEM/F-12 medium (Gibco) (the test substance concentration becoming 10^−5 M to 10^−11 M).
(§2) CHO-K1 cells were developed on a 96-well plate to a size of about 8000 cells/84 μL of medium per well.
(§3) Separately, a solution for transfection was prepared by diluting 1 ng of pZeoSV-2-AR (prepared above in (1)), 50 ng of pIND ARE-B10 (prepared above in (2)) and 4 ng of pcDNA-EGFP (prepared above in (3)) with 6.25 μL of DMEM/F-12 medium and adding 0.15 μL of FuGENE6™ (Roche) to the dilution.
(§4) On the day after the above development, 6 μL/well of the solution for transfection was added to each well for transfection of the cells in each well (the cell culture fluid volume in each well being about 90 μL). Three hours later, each of serial 10-fold dilutions of each test sample (generally 10^−5 M to 10^−11 M) as prepared using the above-prepared medium (DMEM/F-12) supplemented with 5×10^−9 M of 5a-dehydrotestosterone was added in 10 μL portions, and cultivation was continued at room temperature (the final test substance concentrations: 10^−6 M to 10^−12 M).
At 24 hours after addition of the serial dilutions of the test sample, the GFP fluorescence intensity in each well was measured at the excitation wavelength of 485 nm and fluorescence wavelength of 535 nm using Berthord's ARVO.
(§5) In FIGS. 5 and 6, the ordinate denotes the cell survival rate (%) (the relative EGFP fluorescence intensity value at each test substance concentration as determined by taking the EGFP fluorescence intensity value measured without addition of the test substance as 100; shown by curve (1)) as well as the luciferase activity percentage (shown by curve (2)). The abscissa denotes the test substance concentration (M).

Another data set addresses T1, androgen receptor (Homo sapiens, UniProt P10275).
T1 construct: expressed in transfected cells; host or cells: CHO-K1 cells, transiently transfected with pZeoSV2-AR, pIND ARE-B10 and pcDNA-EGFP
T1 sequence (P10275 1-920): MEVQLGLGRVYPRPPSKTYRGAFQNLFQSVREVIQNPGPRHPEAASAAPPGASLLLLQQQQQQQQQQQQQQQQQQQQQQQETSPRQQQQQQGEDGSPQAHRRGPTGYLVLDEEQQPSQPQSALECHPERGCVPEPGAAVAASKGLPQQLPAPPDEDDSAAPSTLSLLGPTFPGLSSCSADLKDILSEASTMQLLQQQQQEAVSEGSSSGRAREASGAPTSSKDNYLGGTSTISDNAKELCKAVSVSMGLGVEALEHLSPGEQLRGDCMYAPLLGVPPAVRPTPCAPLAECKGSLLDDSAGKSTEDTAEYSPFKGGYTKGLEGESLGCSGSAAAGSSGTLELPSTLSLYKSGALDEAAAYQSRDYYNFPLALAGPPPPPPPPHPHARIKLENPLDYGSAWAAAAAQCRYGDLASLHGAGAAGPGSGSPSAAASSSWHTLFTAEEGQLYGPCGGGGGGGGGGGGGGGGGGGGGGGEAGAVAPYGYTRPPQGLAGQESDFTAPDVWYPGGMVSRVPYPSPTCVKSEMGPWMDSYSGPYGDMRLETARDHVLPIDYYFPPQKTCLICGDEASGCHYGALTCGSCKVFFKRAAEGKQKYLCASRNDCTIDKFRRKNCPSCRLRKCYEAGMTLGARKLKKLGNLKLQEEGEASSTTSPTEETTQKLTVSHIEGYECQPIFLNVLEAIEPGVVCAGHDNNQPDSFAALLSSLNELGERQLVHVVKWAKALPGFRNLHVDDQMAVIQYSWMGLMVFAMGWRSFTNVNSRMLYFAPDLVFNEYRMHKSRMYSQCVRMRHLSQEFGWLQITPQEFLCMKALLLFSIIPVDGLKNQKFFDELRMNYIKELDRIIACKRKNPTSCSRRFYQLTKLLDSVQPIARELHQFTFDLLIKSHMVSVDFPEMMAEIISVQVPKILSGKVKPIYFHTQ
Put plainly: Reporter gene assay for androgen receptor antagonist detection (luciferase activity). It is filed as cell-based. The following applies: for antagonistic activity against the androgen receptor (judgment): judged from luciferase activity with EGFP activity as indication of cytotoxicity. On the procedure:
as §1, §2, §3, §4, §5
(A reporter such as luciferase makes a cellular process visible.)

For data set [2], the system named is CHO-K1 cells. Format: cell-based. Conditions: Chinese hamster, 24 h. The procedure:
CHO-K1 cells (cells deposited with ATCC) were developed on a 96-well plate (8000 cells/well). On the next day, transfection was carried in each well with 50 ng/well of pGL3-Control (retaining the SV40 promoter and containing the luciferase gene; Promega) and 4 ng/well of pcDNA-EGFP using 0.15 μL of FuGENE6™ (Roche) (at room temperature).
To each well of the cells of the invention as prepared as described above under (4), 3 hours after transfection, DMSO was added to a final concentration of 0.125, 0.25, 1, 2, 4 or 10%.
After 24 hours following the addition of DMSO, the fluorescence intensity of EGFP expressed in each well was measured using Berthord's measuring apparatus ARVO. Immediately thereafter, the luciferase activity was measured using Steady-Glo™ (Promega) as a substrate and using Berthord's measuring apparatus ARVO.
(§6) In FIG. 4, the ordinate denotes the relative survival rate (%) (the relative measurement result value at each DMSO concentration with the measurement result in each test carried out without addition of DMSO being taken as 100), and the abscissa denotes the DMSO concentration (%).

In data set [3] the test system is CHO-K1 cells. Put plainly: MTT assay of CHO-K1 cells with pGL3-Control alone, in the presence of DMSO (comparison). It is filed as cell-based, hamster. The following applies: 24 hours of culture with DMSO; relative to no DMSO = 100. The procedure:
For comparison, the following MTT assay and AlamarBlue assay were carried out using the respective assay kits. Thus, CHO-K1 cells with pGL3-Control alone introduced therein were used in lieu of the above-prepared cells, DMSO was added to each well to the same concentration as mentioned above and, after 24 hours of culture, the MTT assay was carried out. The MTT measurement was performed as indicated in the manual attached to the product.
as §6
A general note: Tetrazolium assays rely on reduction of a dye to a coloured formazan, in cell work by metabolically active cells.

As to `CC(=O)O[C@]1(C(C)=O)CC[C@H]2[C@@H]3C=C(Cl)C4=CC(=O)[C@@H]5C[C@@H]5[C@]4(C)[C@H]3CC[C@@]21C` [cyproterone acetate, Cyproterone acetate], the cytotoxic effect result in the data set with CHO-K1 cells [1] was “no cytotoxic effect was observed”. Further, the “EGFP activity (cell survival rate)” value with CHO-K1 cells [1] (Chinese hamster, 24 h) was roughly 100%.

As to `CC1(C)CNC(=NN=C(/C=C/c2ccc(C(F)(F)F)cc2)/C=C/c2ccc(C(F)(F)F)cc2)NC1` [hydramethylnone, Hydramethylnone], the “antagonistic activity against the androgen receptor (judgment)” value on androgen receptor is recorded as “no antagonistic activity”. Moreover, on androgen receptor (with 5×10^−9 M 5α-dehydrotestosterone, 24 hours after addition of test substance), the luciferase activity result is listed as “decreases in luciferase activity were due to cytotoxicity”.

As to `O=[N+]([O-])c1ccc(Oc2c(Cl)cc(Cl)cc2Cl)cc1` [CNP, chloronirophen], the “antagonistic activity against the androgen receptor (judgment)” value at androgen receptor was “has an antagonistic activity against the androgen receptor”. Moreover, in the data set with CHO-K1 cells [1], the cytotoxic effect entry is listed as “any cytotoxic effect will not manifest itself”.

For `C[S+](C)[O-]` [DMSO, dimethyl sulfoxide], the “DMSO concentration from which decreases in luciferase activity are observed” value in the data set on CHO-K1 cells [2] is listed as “about 0.25%”. The “DMSO concentration at which a decrease in MTT activity is first observed” value in the data set with CHO-K1 cells [3] is reported as no less than 4%.
